Reference: patent publication US9877957B2, “Tetrahydroisoquinoline derivatives useful as inhibitors of diacylglyceride O-acyltransferase 2” (Merck Sharp & Dohme Corp., priority 2014, dated 2018)

target: hDGAT2 (Homo sapiens (Human), UniProt Q96PD7); assay: DGAT2 Enzymatic Activity Assay (triolein formation, LC/MS/MS); assay type: biochemical; conditions: Sf-9 membrane prep expressing hDGAT2; 25 μM diolein, 10 μM oleoyl-CoA; room temperature; read-out: IC50 values for inhibition of DGAT2
Summary of the method: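 Untagged hDGAT2 in Sf-9 membranes (10 ng/μL) with 25 μM diolein and 10 μM oleoyl-CoA in 100 mM Tris·Cl pH 7.0, 20 mM MgCl2, 5% ethanol at room temperature. Triolein measured by LC/MS/MS against spiked internal standard; IC50 from 4-parameter sigmoidal fit of % inhibition.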

Chain of hDGAT2 (Q96PD7 whole entry): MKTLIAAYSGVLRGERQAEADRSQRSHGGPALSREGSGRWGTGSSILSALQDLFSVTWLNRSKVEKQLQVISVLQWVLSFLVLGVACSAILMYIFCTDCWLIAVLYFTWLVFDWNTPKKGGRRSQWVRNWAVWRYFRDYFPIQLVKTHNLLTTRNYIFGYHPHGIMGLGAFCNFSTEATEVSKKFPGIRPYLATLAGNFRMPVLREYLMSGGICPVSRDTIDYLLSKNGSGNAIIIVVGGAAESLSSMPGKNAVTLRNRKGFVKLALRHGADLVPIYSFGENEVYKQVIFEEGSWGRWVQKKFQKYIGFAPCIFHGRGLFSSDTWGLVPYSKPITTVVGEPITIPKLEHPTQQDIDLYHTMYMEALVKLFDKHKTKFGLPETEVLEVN

| SMILES | IC50 |
| --- | --- |
| Cc1nccn1CCNC(=O)c1ccc(-c2cccc(C(F)(F)F)c2)c2c1CN(C(=O)NC(C)(C)C)CC2 [Example 56, N^2-(tert-butyl)-N^8-(2-(2-methyl-1H-imidazol-1-yl)ethyl)-5-(3-(trifluoromethyl)phenyl)-3,4-dihydroisoquinoline-2,8(1H)-dicarboxamide] | 7950 nM |
| CC(C)(C)NC(=O)N1CCc2c(-c3cccc(OC(F)(F)F)c3)ccc(C(=O)N3CCCCC3c3ccccc3)c2C1 (stereo not shown) [Example 57, N-(tert-butyl)-8-(2-phenylpiperidine-1-carbonyl)-5-(3-(trifluoromethoxy)phenyl)-3,4-dihydroisoquinoline-2(1H)-carboxamide] | 8760 nM |
| CC(C)(C)NC(=O)N1CCc2c(-c3cccc(C(F)(F)F)c3)ccc(C(=O)NCCc3nc4ccc(Cl)cc4[nH]3)c2C1 [Example 58, N^2-(tert-butyl)-N^8-(2-(6-chloro-1H-benzo[d]imidazol-2-yl)ethyl)-5-(3-(trifluoromethyl)phenyl)-3,4-dihydroisoquinoline-2,8(1H)-dicarboxamide] | 16.7 nM |
| COc1ccc2nc(CCNC(=O)c3ccc(-c4cccc(C(F)(F)F)c4)c4c3CN(C(=O)NCC(F)(F)F)CC4)[nH]c2c1 [Example 59, N^8-(2-(6-methoxy-1H-benzo[d]imidazol-2-yl)ethyl)-N^2-(2,2,2-trifluoroethyl)-5-(3-(trifluoromethyl)phenyl)-3,4-dihydroisoquinoline-2,8(1H)-dicarboxamide] | 82.9 nM |
| Cc1nnc(CCNC(=O)c2ccc(-c3cccc(C(F)(F)F)c3)c3c2CN(C(=O)NC(C)(C)C)CC3)[nH]1 [Example 60, N^2-(tert-butyl)-N^8-(2-(5-methyl-4H-1,2,4-triazol-3-yl)ethyl)-5-(3-(trifluoromethyl)phenyl)-3,4-dihydroisoquinoline-2,8(1H)-dicarboxamide] | 1350 nM |
| CC(NC(=O)c1ccc(-c2cccc(C(F)(F)F)c2)c2c1CN(C(=O)NC(C)(C)C)CC2)c1nnc[nH]1 (stereo not shown) [Example 62, N^8-(1-(4H-1,2,4-triazol-3-yl)ethyl)-N^2-(tert-butyl)-5-(3-(trifluoromethyl)phenyl)-3,4-dihydroisoquinoline-2,8(1H)-dicarboxamide] | 3840 nM |
| CC(C)(C)NC(=O)N1CCc2c(-c3cccc(C(F)(F)F)c3)ccc(C(=O)NC3(c4ccccn4)CC3)c2C1 [Example 63, N^2-(tert-butyl)-N^8-(1-(pyridin-2-yl)cyclopropyl)-5-(3-(trifluoromethyl)phenyl)-3,4-dihydroisoquinoline-2,8(1H)-dicarboxamide] | 2060 nM |
| CC(NC(=O)c1ccc(-c2cccc(C(F)(F)F)c2)c2c1CN(C(=O)NC(C)(C)C)CC2)c1cn2ncsc2n1 (stereo not shown) [Example 64, N^2-(tert-butyl)-N^8-(1-(imidazo[2,1-b][1,3,4]thiadiazol-6-yl)ethyl)-5-(3-(trifluoromethyl)phenyl)-3,4-dihydroisoquinoline-2,8(1H)-dicarboxamide] | 390 nM |
| CC(C)(C)NC(=O)N1CCc2c(-c3cccc(C(F)(F)F)c3)ccc(C(=O)NCc3cnc4ccccn34)c2C1 [Example 66, N^2-(tert-butyl)-N^8-(imidazo[1,2-a]pyridin-3-ylmethyl)-5-(3-(trifluoromethyl)phenyl)-3,4-dihydroisoquinoline-2,8(1H)-dicarboxamide] | 53.4 nM |
| Cc1nonc1CNC(=O)c1ccc(-c2cccc(C(F)(F)F)c2)c2c1CN(C(=O)NC(C)(C)C)CC2 [Example 67, N^2-(tert-butyl)-N^8-((4-methyl-1,2,5-oxadiazol-3-yl)methyl)-5-(3-(trifluoromethyl)phenyl)-3,4-dihydroisoquinoline-2,8(1H)-dicarboxamide] | 244 nM |
| Cn1ccnc1CNC(=O)c1ccc(-c2cccc(C(F)(F)F)c2)c2c1CN(C(=O)NC(C)(C)C)CC2 [Example 68, N^2-(tert-butyl)-N^8-((1-methyl-1H-imidazol-2-yl)methyl)-5-(3-(trifluoromethyl)phenyl)-3,4-dihydroisoquinoline-2,8(1H)-dicarboxamide] | 474 nM |
| CC(C)(C)NC(=O)N1CCc2c(-c3cccc(C(F)(F)F)c3)ccc(C(=O)NCCn3cnnc3)c2C1 [Example 71, N^8-(2-(4H-1,2,4-triazol-4-yl)ethyl)-N^2-(tert-butyl)-5-(3-(trifluoromethyl)phenyl)-3,4-dihydroisoquinoline-2,8(1H)-dicarboxamide] | 178 nM |
| CC(NC(=O)c1ccc(-c2cccc(C(F)(F)F)c2)c2c1CN(C(=O)NC(C)(C)C)CC2)c1nncs1 (stereo not shown) [Example 72, N^8-(1-(1,3,4-thiadiazol-2-yl)ethyl)-N^2-(tert-butyl)-5-(3-(trifluoromethyl)phenyl)-3,4-dihydroisoquinoline-2,8(1H)-dicarboxamide] | 659 nM |
| CC(NC(=O)c1ccc(-c2cccc(OC(F)(F)F)c2)c2c1CN(C(=O)NC(C)(C)C)CC2)c1nc(-c2ccccn2)no1 (stereo not shown) [Example 73, N^2-(tert-butyl)-N^8-(1-(3-(pyridin-2-yl)-1,2,4-oxadiazol-5-yl)ethyl)-5-(3-(trifluoromethoxy)phenyl)-3,4-dihydroisoquinoline-2,8(1H)-dicarboxamide] | 511 nM |
| CC(C)(C)NC(=O)N1CCc2c(-c3cccc(OC(F)(F)F)c3)ccc(C(=O)NCc3cn4ccsc4n3)c2C1 [Example 74, N^2-(tert-butyl)-N^8-(imidazo[2,1-b]thiazol-6-ylmethyl)-5-(3-(trifluoromethoxy)phenyl)-3,4-dihydroisoquinoline-2,8(1H)-dicarboxamide] | 1540 nM |
| CC(C)(C)NC(=O)N1CCc2c(-c3cccc(OC(F)(F)F)c3)ccc(C(=O)NCc3nnc4n3CCC4)c2C1 [Example 75, N^2-(tert-butyl)-N^8-((6,7-dihydro-5H-pyrrolo[2,1-c][1,2,4]triazol-3-yl)methyl)-5-(3-(trifluoromethoxy)phenyl)-3,4-dihydroisoquinoline-2,8(1H)-dicarboxamide] | 2490 nM |
| CC(C)(C)NC(=O)N1CCc2c(-c3cccc(OC(F)(F)F)c3)ccc(C(=O)NCCn3ccnn3)c2C1 [Example 76, N^8-(2-(1H-1,2,3-triazol-1-yl)ethyl)-N^2-(tert-butyl)-5-(3-(trifluoromethoxy)phenyl)-3,4-dihydroisoquinoline-2,8(1H)-dicarboxamide] | 2580 nM |
| CC(CNC(=O)c1ccc(-c2cccc(OC(F)(F)F)c2)c2c1CN(C(=O)NC(C)(C)C)CC2)c1cnco1 (stereo not shown) [Example 77, N^2-(tert-butyl)-N^8-(2-(oxazol-5-yl)propyl)-5-(3-(trifluoromethoxy)phenyl)-3,4-dihydroisoquinoline-2,8(1H)-dicarboxamide] | 867 nM |
| CC(CNC(=O)c1ccc(-c2cccc(OC(F)(F)F)c2)c2c1CN(C(=O)NC(C)(C)C)CC2)c1cccnc1 (stereo not shown) [Example 78, N^2-(tert-butyl)-N^8-(2-(pyridin-3-yl)propyl)-5-(3-(trifluoromethoxy)phenyl)-3,4-dihydroisoquinoline-2,8(1H)-dicarboxamide] | 1180 nM |
| CC(C)(C)NC(=O)N1CCc2c(-c3cccc(OC(F)(F)F)c3)ccc(C(=O)NCc3cccc4ccnn34)c2C1 [Example 79, N^2-(tert-butyl)-N^8-(pyrazolo[1,5-a]pyridin-7-ylmethyl)-5-(3-(trifluoromethoxy)phenyl)-3,4-dihydroisoquinoline-2,8(1H)-dicarboxamide] | 149 nM |
| CC(C)(C)NC(=O)N1CCc2c(-c3cccc(OC(F)(F)F)c3)ccc(C(=O)NCc3cc(-c4ccccn4)no3)c2C1 [Example 80, N^2-(tert-butyl)-N^8-((3-(pyridin-2-yl)isoxazol-5-yl)methyl)-5-(3-(trifluoromethoxy)phenyl)-3,4-dihydroisoquinoline-2,8(1H)-dicarboxamide] | 524 nM |
| CC(C)(C)NC(=O)N1CCc2c(-c3cccc(OC(F)(F)F)c3)ccc(C(=O)NCc3cnn4ccccc34)c2C1 [Example 81, N^2-(tert-butyl)-N^8-(pyrazolo[1,5-a]pyridin-3-ylmethyl)-5-(3-(trifluoromethoxy)phenyl)-3,4-dihydroisoquinoline-2,8(1H)-dicarboxamide] | 370 nM |
